Source: patent publication US11071731B2, “Allosteric modulators of the mu opioid receptor” (Chiromics, LLC, priority 2017, dated 2021)
Read-outs that look alike come from different tables or passages of the source.

How the values were obtained:
mu opioid receptor (MOR) [1] = target: T1, mu opioid receptor (MOR) (Homo sapiens, UniProt P35372); assay: PathHunter β-arrestin recruitment assay, PAM mode with EC20 endomorphin-1; assay type: cell-based
Outline: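 Enzyme fragment complementation read-out: β-gal ED fragment fused to receptor, EA fused to β-arrestin, recruitment restoring β-gal activity detected by chemiluminescence. EC50 and percent maximal response derived for each compound.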

mu opioid receptor (MOR) [2] = target: T1, mu opioid receptor (MOR); assay: Hit Hunter cAMP signaling assay (adenylyl cyclase inhibition), PAM mode with EC20 endomorphin-1; assay type: cell-based
[3] = target: T2, mu opioid receptor subtype OPRM1 (Homo sapiens, UniProt P35372); assay: β-arrestin recruitment assay, antagonist format; assay type: cell-based; settings: Table 18
T2 sequence (P35372 whole entry, the tested form may be a part): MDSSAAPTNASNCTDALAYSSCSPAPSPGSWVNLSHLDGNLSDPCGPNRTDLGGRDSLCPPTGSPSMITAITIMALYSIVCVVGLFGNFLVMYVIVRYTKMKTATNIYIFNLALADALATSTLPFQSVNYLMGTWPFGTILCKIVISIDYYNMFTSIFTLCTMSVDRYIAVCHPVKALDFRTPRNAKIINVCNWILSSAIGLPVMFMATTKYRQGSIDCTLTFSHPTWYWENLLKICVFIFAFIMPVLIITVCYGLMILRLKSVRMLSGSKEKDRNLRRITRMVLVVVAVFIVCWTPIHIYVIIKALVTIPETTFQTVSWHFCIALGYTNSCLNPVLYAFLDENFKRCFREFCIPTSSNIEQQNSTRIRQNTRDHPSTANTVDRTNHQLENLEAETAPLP
Protocol: Beta-Arrestin Pathway: The PathHunter β-arrestin assay monitors the activation of a GPCR in a homogenous, non-imaging assay format using a technology developed by DiscoveRx called Enzyme Fragment Complementation (EFC) with beta-galactosidase (β-Gal) as the functional reporter. […] EA is fused to β-Arrestin and ED is fused to the GPCR of interest. When the GPCR is activated and β-arrestin is recruited to the receptor, ED and EA complementation occurs, restoring β-gal activity, which is measured using chemiluminescent PathHunter Detection Reagents.
Similar results were obtained when agonist and antagonist activity were assayed using cAMP signaling as the readout.

MOR [4] = target: T3, MOR (Homo sapiens, UniProt P35372); assay: cell-based; settings: EC20 morphine agonism of MOR
T3 sequence (P35372 whole entry): as the sequence (P35372 whole entry, the tested form may be a part) above

MOR [5] = target: T3, MOR; assay: cell-based; settings: EC20 morphine agonism of MOR; remark: listed apart in the source
MOR [6] = target: T3, MOR; assay: cell-based; settings: EC20 Oxycodone agonism of MOR
MOR [7] = target: T3, MOR; assay: cell-based; settings: EC20 Oxycodone agonism of MOR; remark: listed apart in the source
MOR [8] = target: T3, MOR; assay type: cell-based; settings: β-arrestin; EC20 EM2 agonism of MOR
MOR [9] = target: T3, MOR; assay type: cell-based; settings: cAMP; EC20 EM2 agonism of MOR
MOR [10] = target: T3, MOR; assay type: cell-based
MOR [11] = target: T3, MOR; assay type: cell-based; remark: listed apart in the source
[12] = target: T2, mu opioid receptor subtype OPRM1; assay: cell-based
[13] = target: T2, mu opioid receptor subtype OPRM1
OPRM1 receptor = OPRM1 receptor (Homo sapiens, UniProt P35372)
OPRM1 receptor, sequence (P35372 whole entry): as the sequence (P35372 whole entry, the tested form may be a part) above

T1 sequence (P35372 whole entry, the tested form may be a part): as above

SMILES: COc1ccc(C2CCCCN2S(=O)(=O)c2ccc(Cl)cc2)cc1Br (single isomer, unassigned) [compound 6]
- allosteric activity for β-arrestin recruitment (mu opioid receptor (MOR) [1]; EC20 endomorphin-1 concentration of 4.5 nM): moderate positive allosteric effect
- β-arr Max. Resp. (mu opioid receptor (MOR) [1]; maximal response for β-arrestin recruitment): F (F represents a maximal response of > 60%)
- EC50 (mu opioid receptor (MOR) [1]; β-arrestin recruitment, read-out: β-arr. EC50): 700 to 2100 nM
- Max. Response (mu opioid receptor (MOR) [1]; β-arrestin, EC20 EM-1 agonism of MOR): 173
- EC50 (mu opioid receptor (MOR) [1]; β-arrestin, EC20 EM-1 agonism of MOR, read-out: RC50 (the source's name)): 2520 nM
- allosteric activity for cAMP signaling (mu opioid receptor (MOR) [2]; EC20 endomorphin-1 concentration of 0.45 nM): moderate positive allosteric effect
- EC50 (mu opioid receptor (MOR) [2]; RC50, cAMP, EC20 EM-1 agonism of MOR): 500 nM
- EC50 (mu opioid receptor (MOR) [2]; cAMP EC50, adenylyl cyclase inhibition): < 700 nM
- Max. Response (mu opioid receptor (MOR) [2]; cAMP, EC20 EM-1 agonism of MOR): 93
- cAMP Max. Resp. (mu opioid receptor (MOR) [2]; maximal response for adenylyl cyclase inhibition): F (F represents a maximal response of > 60%)
- IC50 [3]: > 25 µM
- EC50 (MOR [4]; RC50, β-arrestin): 8.25 µM
- Max. Response (MOR [4]; β-arrestin): 421
- EC50 (MOR [5]; RC50, cAMP): 2960 nM
- Max. Response (MOR [5]; cAMP): 93
- EC50 (MOR [6]; RC50, β-arrestin): 4.83 µM
- Max. Response (MOR [6]; β-arrestin): 384
- EC50 (MOR [7]; RC50, cAMP): 320 nM
- Max. Response (MOR [7]; cAMP): 90
- Max. Response (MOR [8]): 117
- Max. Response (MOR [9]): 91
- factor of increase of the affinity (α) of oxycodone (MOR [10]; β-arrestin): 2
- factor of increase of the efficacy (β) of oxycodone (MOR [10]; β-arrestin): 80
- shift in the potency of oxycodone (MOR [10]; β-arrestin recruitment): concentration-dependent and saturable leftward shifts
- shift in the potency of oxycodone (MOR [11]; adenylyl cyclase inhibition): concentration-dependent and saturable leftward shifts
- factor of increase of the affinity (α) of oxycodone (MOR [11]; cAMP): 4
- factor of increase of the efficacy (β) of oxycodone (MOR [11]; cAMP): 4
- effective potency for PAM effect (MOR [11]; cAMP signal, oxycodone): 234 nM
- EC50 [12]: > 25 µM

SMILES: COc1ccc2c3c1O[C@H]1C(=O)CC[C@@]4(O)[C@@H](C2)N(C)CC[C@]314 [oxycodone]
- % Max. Resp., β-arrestin [13]: 102.03%
- % Max. Resp., cAMP (OPRM1 receptor): 100.62%
